Measured values published in ChEMBL document CHEMBL3124780, “The synthesis of 4,7-disubstituted-2H-benzo[b][1,4]-oxazin-3(4H)-ones using Smiles rearrangement and their in vitro evaluation as platelet aggregation inhibitors” (Bioorg Med Chem Lett, 2014).

Assay: Antiplatelet activity in New Zealand rabbit platelet-rich plasma assessed as inhibition of ADP-induced aggregation treated for 5 mins prior to ADP-challenge measured after 1 to 6 mins by spectrophotometric analysis
Type: functional, cell-free
Conditions: Oryctolagus cuniculus

IC50 [µM]	SMILES
15.5	CCCCN1C(=O)COc2cc(CN3CCN(c4ccccc4)CC3)ccc21
15.2	CCCCN1C(=O)COc2cc(CN3CCN(c4ccc(F)cc4)CC3)ccc21
11	CC(C)N1C(=O)COc2cc(CN3CCOCC3)ccc21
14.4	CCCCN1C(=O)COc2cc(CN3CCOCC3)ccc21
9.63	CCCN1C(=O)COc2cc(CN3CCOCC3)ccc21
11.4	CCCN1C(=O)COc2cc(CN3CCN(c4ccc(F)cc4)CC3)ccc21
13.8	CCCN1C(=O)COc2cc(CN3CCN(c4ccccc4F)CC3)ccc21
12.8	CCCN1C(=O)COc2cc(CN3CCN(c4ccccc4)CC3)ccc21
12.2	O=C1COc2cc(CN3CCOCC3)ccc2N1Cc1ccccc1
10.5	CCN1C(=O)COc2cc(CN3CCOCC3)ccc21
17.1	CCCCN1C(=O)COc2cc(CN3CCN(c4ccccc4F)CC3)ccc21
9.2	CCCN1C(=O)COc2cc(CN3CCN(Cc4ccccc4)CC3)ccc21

More lines, now with the values behind:

SMILES	IC50 [µM]
CCN1C(=O)COc2cc(CN3CCN(c4ccccc4)CC3)ccc21	10.1
O=C1COc2cc(CN3CCN(c4ccccc4)CC3)ccc2N1Cc1ccccc1	13.9
CC(C)N1C(=O)COc2cc(CN3CCN(c4ccccc4)CC3)ccc21	10.8
CC(=O)Oc1ccccc1C(=O)O [ASPIRIN]	7.07
O=C1COc2cc(CN3CCN(c4ccc(F)cc4)CC3)ccc2N1Cc1ccccc1	19.4
Clc1ccccc1CN1CCc2sccc2C1 [TICLOPIDINE]	3.72
CCN1C(=O)COc2cc(CN3CCN(c4ccccc4F)CC3)ccc21	12.7
CC(C)N1C(=O)COc2cc(CN3CCN(c4ccccc4F)CC3)ccc21	13.6
CC(C)N1C(=O)COc2cc(CN3CCN(c4ccc(F)cc4)CC3)ccc21	13.3
O=C1COc2cc(CN3CCN(c4ccccc4F)CC3)ccc2N1Cc1ccccc1	15.3
CCN1C(=O)COc2cc(CN3CCN(c4ccc(F)cc4)CC3)ccc21	11.1
